For one experiment, the system named is OBP2. In words: Fluorescent-quench ligand-protein-binding assay (OBP2 binding). Also noted: species or system Apis mellifera. The text has this:
To identify a honeybee repellent disclosed herein, candidate compounds were screened based upon the fact that 2-heptanone is an established repellent of bees. 2-heptanone is thought to mediate its behavioral response through binding to a specific odorant-binding protein called OBP2. […] Such assays are generally known in the art. See, e.g., Briand, et al., Ligand-Binding Properties and Structural Characterization of a Novel Rat Odorant-Binding Protein Variant, Eur. J. Biochem. 267(10): 3079-3089 (2000); Briand, et al., Ligand Binding and Physico-Chemical Properties of ASP2, A Recombinant Odorant-Binding Protein From Honeybee (Apis mellifera L.), Eur. J. Biochem. 268(3): 752-760 (2001); Briand, et al., Characterization of a Chemosensory Protein (ASP3c) from Honeybee (Apis mellifera L.) as a Brood Pheromone Carrier, Eur. J. Biochem. 269(18): 4586-4596 (2002), each of which is hereby incorporated by reference in its entirety.

Experiment [1] has as its system Apis mellifera Carniolan foraging worker honeybees. In words: Proboscis extension response (PER) assay with bees conditioned to 2-heptanone. It is filed as in vivo. The note with it: 0.5% compound in Triton X-100/water on filter paper, 4 s exposure; only bees giving PER with 2-heptanone and not with water or 15% Triton X-100 controls counted. As to the method:
To determine whether a living honeybee can recognize a candidate compound, these compounds were tested using a proboscis extension response (PER) assay using classical conditioning approaches. Proboscis extension response conditioning is a case of appetitive learning, in which bees learn to associate odor stimuli with sucrose reward in the laboratory. In this case, bees were conditioned to produce a PER to 2-heptanone as the conditioned stimulus and a sugar reward as the unconditioned stimulus. These trained bees were then exposed to an odor pulse of a candidate compound to test whether a candidate compound would also produce a PER. If the candidate compound “mimics” 2-heptanone then the honeybee will extend its proboscis.
For conditioning procedures, Apis mellifera Carniolan foraging worker honeybees were obtained from a local apiary (typically 60 bees per shipment). The honeybees were held overnight in insect cages with food and water freely available, in an environmentally controlled room on a light cycle similar to the ambient cycle at the time of the assay.
For conditioning procedures, all tests were done in an odorant delivery apparatus set inside a fume hood. The apparatus comprised a set of open-ended, horizontal, 3 cm diameter by 10 cm long plastic tubes. Each tube was designed where a honeybee could be positioned at the distal end of a tube, with the opening at the other end of the tube located proximal to an inlet of the fume hood. To deliver an odorant, room air was pumped by a diaphragm pump through a particle filter via 0.25 inch plastic tubing at approximately 0.7 m/sec. The air flow passes into the headspace above an odorant (0.5% [v/v] 2-heptanone dissolved in odorless light paraffin oil) contained in a 100 mL bottle. The headspace air then passes through another plastic tube to a manifold of 4-way valves, each of which was attached near the proximal end of a plastic tube containing a bee. Each bee was exposed separately for a desired time period to the odorant by opening and closing the appropriate valve. When each valve was closed, the odor was flushed away immediately by the continuous fume hood air stream.
To train a honeybee to respond to a conditioned and unconditioned stimuli, bees were placed, without anesthesia, in individual 1.5 mL micro-centrifuge holding tubes and held overnight without access to food or water. The holding tubes containing the starved bees were placed in racks in groups of eight. One rack at a time was placed behind the odorant delivery apparatus so that each bee's head is centered at the distal end of a horizontal plastic tube. Each bee was exposed to the 2-heptanone odorant alone for four seconds, and then while being fed an 80% sucrose solution for and additional three seconds. The sucrose solution was delivered on a piece of saturated filter paper held in forceps. […] Positive and negative responses were recorded. A positive PER was scored when a bee extended its proboscis before the sucrose appeared. In a typical trial, 48 individual bees were subjected to conditioning.
After conditioning, honeybees were tested with the candidate compounds the same day or on the following day or, most commonly, both. When held overnight, bees were fed with sucrose and kept in their holding tubes. When tested the day after training, bees were given one or more rounds of conditioning with 2-heptatone to refresh their memories. Candidate compounds stocks were made at 5% (w/v) in polyoxyethylene octyl phenyl ether (TRITON® X-100), a non-ionic detergent/surfactant, and stored at 4° C. […] Test solutions were made fresh daily by mixing stock solutions with water for a final compound concentration of 0.5%. A solution of 0.5% 2-heptanone in paraffin oil was used as a positive control.

For experiment [2] the test system is unchanged. In words: Choice test in a free-flight box apparatus. It counts as in vivo. To be noted: for P (probability that a honeybee will return to a test dish, nP divided by n): control likelihood without compound 47.5%; for nP (number of tests a honeybee returned to a preferred test dish): free-flight box, 2 μL of 0.05-0.5% compound on filter papers under honey dish. The text has this: To determine whether living honeybees will choice to move towards a source of a candidate compound, these compounds will be assayed using a choice test in a free-flight box apparatus.
All tests will be done in a free-flight box apparatus. The apparatus comprises a 244 cm long×46 cm deep×30 cm high clear plastic box including two equally-sized independent testing chambers, each with 10 cm diameter air inlets that admit filtered room air, separated by a smaller central chamber with a screened air outlet to each testing chamber. Air can be pulled through the sealed box via a 10 cm diameter duct from the air outlet using an AQE Fume Fighter 500 fume extractor (BPA Air Quality Solutions, LLC, Charleston, S.C.), which removes the test odors using activated charcoal and HEPA filters. The box is housed in an environmentally controlled room with overhead illumination timed to correspond to the current ambient light cycle including 2 additional sets of lights timed to approximate crepuscular lighting conditions. The bottom of the apparatus will be lined with clean absorbent paper marked with a 4×9 grid pattern, forming 12 cm×12 cm squares with marked coordinates.
Apis mellifera Carniolan foraging worker honeybees will be obtained from a local apiary (typically 60 bees per shipment). Thirty honeybees will be put into each testing chamber and will be allowed to acclimate for 24 hours with food and water freely available. At the beginning of each test day all food will be removed from the test chamber, but water will be continually available throughout all tests. For each test, approximately 0.3 g of organic, raw orange blossom honey will be added to each clean small plastic weigh boat (Cole-Palmer). The honey boats will be placed in small plastic culture dishes, which will be distributed in the marked squares in the chambers. The positions of the dishes on the grid for a set of trials will be chosen to avoid the bees' preferred resting area so that they will have to find the food actively, but the same dish positions will be maintained for a given set of trials. We will use seven dishes of honey: six to which the bees will have access and a seventh that will have a screened lid. The honey in each boat will be weighed on an analytical balance before and after the test, with the screened sample as a control for evaporative loss. The fume extractor will be left off during the experimental trails, and will be turned on to clear the air after the test dishes are covered and removed from the chamber at the end of each trial.
Based on the observation that bees tend to return to dishes in the same position where they have fed before, each set of trials with each group of bees began with “Pattern Identification” tests to see which dishes lose the most weight, reflecting the most feeding. Once bees are consuming an acceptable amount in 10-15 min, typically in 1-2 trials, a set of test compound trials will begin. The test compound will be pipetted onto pieces of filter paper placed on the dish bottom below the boat containing a fresh, weighed honey sample so that the test compound will be inaccessible to the bees. We used 2 μL of a candidate compound at a concentration of 0.05-0.5%, in Triton X-100 or paraffin oil, on each of four pieces of filter paper per dish. The test-solution dishes will be set at the same positions as the one or two dishes favored in the preceding Pattern Identification trial. To eliminate interference from the solvent, the other dishes without the test substance will contain the same volume of the appropriate solvent on filter papers as the test solution dishes. The bees will be allowed to feed for 10-15 minutes. Bee movements will be recorded by a small, wide-angle digital video camcorder (HD Hero 960; GoPro, Halfmoon Bay, Calif.) placed on a tripod in front of the test chamber. […]

Take `Oc1ccc2ccccc2c1C=NNc1ccccn1` [compound 66, 2-hydroxy-1-naphthaldehyde 2-pyridinylhydrazone]: in the experiment with OBP2, the “OBP2 binding characteristic of compound” value was “Moderate (Moderate, indicates that 50% or less of the compound bound to OBP2.)”. Besides, in experiment [1], the “2-heptanone positive bees testing positive to compound” value turned out to be 24.4%. Besides, in experiment [2], the “P (probability that a honeybee will return to a test dish, nP divided by n)” value stood at 0.379 and the “nP (number of tests a honeybee returned to a preferred test dish)” value worked out at 22.

Take `COc1cc(C2N=C(c3ccccc3)N=C(c3ccccc3)N2)ccc1O` (centres unmarked) [compound 67, 4-(4,6-diphenyl-1,2-dihydro-1,3,5-triazin-2-yl)-2-methoxyphenol]: the “OBP2 binding characteristic of compound” value in the experiment with OBP2 was “Moderate (Moderate, indicates that 50% or less of the compound bound to OBP2.)”. The “2-heptanone positive bees testing positive to compound” value in experiment [1] amounted to 26.5%. In addition, in experiment [2], the “P (probability that a honeybee will return to a test dish, nP divided by n)” value is on record as 0.321 and the “nP (number of tests a honeybee returned to a preferred test dish)” value is given as 9.

On to `CC(=O)c1ccccc1NC(=O)C1CCC(C(=O)Nc2ccccc2C(C)=O)S1` (centres unmarked) [compound 68, N,N′-bis(2-acetylphenyl)tetrahydro-2,5-thiophenedicarboxamide], for which the “OBP2 binding characteristic of compound” value in the experiment with OBP2 is “Moderate (Moderate, indicates that 50% or less of the compound bound to OBP2.)”. For the same compound, the “2-heptanone positive bees testing positive to compound” value in experiment [1] is 20.8%. In addition, in experiment [2], the “P (probability that a honeybee will return to a test dish, nP divided by n)” value is recorded as 0.5 and the “nP (number of tests a honeybee returned to a preferred test dish)” value was 2.

Turning to `Oc1ccc2ccccc2c1C=Nc1ccc(I)cc1` [compound 74, 1-{[(4-iodophenyl)imino]methyl}-2-naphthol], the “OBP2 binding characteristic of compound” value in the experiment on OBP2 is “Moderate (Moderate, indicates that 50% or less of the compound bound to OBP2.)”. In experiment [1], the “2-heptanone positive bees testing positive to compound” value is listed as 25.0%. In experiment [2], the “P (probability that a honeybee will return to a test dish, nP divided by n)” value amounted to 0.45 and the “nP (number of tests a honeybee returned to a preferred test dish)” value is given as 18.

As for `Nc1c(C(=O)c2ccccc2)sc2nc(-c3cccnc3)ccc12` [compound 75, [3-amino-6-(3-pyridinyl)thieno[2,3-b]pyridin-2-yl](phenyl)methanone], in the experiment on OBP2, the “OBP2 binding characteristic of compound” value is given as “Moderate (Moderate, indicates that 50% or less of the compound bound to OBP2.)”. For the same compound, in experiment [1], the “2-heptanone positive bees testing positive to compound” value is 25.0%. Moreover, in experiment [2], the “P (probability that a honeybee will return to a test dish, nP divided by n)” value was determined as 0.542 and the “nP (number of tests a honeybee returned to a preferred test dish)” value was determined as 13.

For `Nc1cccc2nc3c4cccc5cccc(c(=O)n3c12)c54` [compound 109], the “OBP2 binding characteristic of compound” value with OBP2 is “Moderate (Moderate, indicates that 50% or less of the compound bound to OBP2.)”. Moreover, the “2-heptanone positive bees testing positive to compound” value in experiment [1] is listed as 12.1%.

Regarding `O=C(C=CNc1ccccc1O)c1ccc(Br)cc1` [compound 110], in the experiment on OBP2, the “OBP2 binding characteristic of compound” value is on record as “Moderate (Moderate, indicates that 50% or less of the compound bound to OBP2.)”. For the same compound, the “2-heptanone positive bees testing positive to compound” value in experiment [1] is 31.4%.

As to `O=C1CSC(=CC(=O)c2ccc(Cl)cc2)N1` [compound 111], in the experiment with OBP2, the “OBP2 binding characteristic of compound” value is on record as “Moderate (Moderate, indicates that 50% or less of the compound bound to OBP2.)”. For the same compound, in experiment [1], the “2-heptanone positive bees testing positive to compound” value came out at 30.6%.

As for `O=c1c2cc(O)cc3cccc(c32)c2nc3ccc4c5c(ccc(c35)n12)CC4` [compound 112], in the experiment on OBP2, the “OBP2 binding characteristic of compound” value was “Moderate (Moderate, indicates that 50% or less of the compound bound to OBP2.)”. Further, the “2-heptanone positive bees testing positive to compound” value in experiment [1] was found to be 44.4%.

Consider `O=C(NN=Cc1ccc(-c2cccc(Cl)c2Cl)o1)c1ccncc1` [compound 113], for which the “OBP2 binding characteristic of compound” value with OBP2 is listed as “Moderate (Moderate, indicates that 50% or less of the compound bound to OBP2.)”. In addition, the “2-heptanone positive bees testing positive to compound” value in experiment [1] is on record as 11.1%.

Consider `COc1ccc(-c2ccc(C=NNC(=O)c3ccccn3)o2)cc1Cl` [compound 114], for which, in the experiment with OBP2, the “OBP2 binding characteristic of compound” value is reported as “Moderate (Moderate, indicates that 50% or less of the compound bound to OBP2.)”. The “2-heptanone positive bees testing positive to compound” value in experiment [1] was found to be 22.2%.

On to `CCN1C(=O)C(=Cc2cc(Br)ccc2OC)SC1=S` [compound 115], for which the “OBP2 binding characteristic of compound” value with OBP2 is “Moderate (Moderate, indicates that 50% or less of the compound bound to OBP2.)”. The “2-heptanone positive bees testing positive to compound” value in experiment [1] was found to be 40.0%.

In the case of `CCN1C(=O)C(=Cc2cc(Br)ccc2O)SC1=S` [compound 116], the “OBP2 binding characteristic of compound” value in the experiment on OBP2 is recorded as “Moderate (Moderate, indicates that 50% or less of the compound bound to OBP2.)”. Moreover, in experiment [1], the “2-heptanone positive bees testing positive to compound” value stood at 25.0%.

As for `O=C(c1ccccc1)N1N=C(c2ccccc2)CC1(O)C(F)(F)F` (centres unmarked) [compound 119], in the experiment on OBP2, the “OBP2 binding characteristic of compound” value was “Moderate (Moderate, indicates that 50% or less of the compound bound to OBP2.)”. Further, the “2-heptanone positive bees testing positive to compound” value in experiment [1] is 60.0%.

(Values after patent US9796676B2, “Honeybee repellents and uses thereof” (Inscent, Inc., priority 2013, dated 2017).)
